Source: article PMC6264390, “Design, Synthesis and Structure-activity Studies of Rhodanine Derivatives as HIV-1 Integrase Inhibitors” (Molecules, 2010)
Like-named read-outs stand apart in the source and are kept apart here.

Assays:
[1] = target: T1, HIV-1 IN (Human immunodeficiency virus type 1 group M subtype B, UniProt P12497); assay: In vitro IN inhibition assay (3’-processing and strand transfer); assay type: biochemical; conditions: for IC50: Mn2+ cofactor (7.5 mM MnCl2); for IN inhibition (in words): highest concentration tested 100 μM
T1 construct: pre-incubated with purified recombinant IN (at a final concentration of 200 nM); made in house
Description: (§1) All compounds were dissolved in DMSO to a final stock concentration of 10 mM and stored at −20 °C. Initial screening for IN inhibitory effect was done at 100 μM and dilutions were made in DMSO. Compounds showing at least 50% inhibition at 100 μM were selected for IC50 determinations. γ-[^32P]-ATP was purchased from Perkin Elmer (Waltham, MA, USA). The expression system for wild-type IN was a generous gift of Dr. Robert Craigie, Laboratory of Molecular Biology, NIDDK, NIH (Bethesda, MD, USA). His-tagged APE1 was purified from an expression system kindly provided by Dr. Tom Curran, Department of Developmental Neurobiology, St. Jude Children’s Research Hospital (Memphis, TN, USA).
(§2) 21-mer oligonucleotides used in IN inhibition assay [21top (5’-[…]-3’) and 21bot (5’-ACTGCTAGAGATTTTCCA CAC-3’)] were purchased from Integrated DNA Technologies (Coralville, IA, USA) and purified by UV shadowing on polyacrylamide gel. The oligonucleotides used in APE1 inhibition assay [top strand: 5′-ATTTCACCGGTACG(F)TCTAGAATC CG-3′ containing the tetrahydrofuran synthetic abasic residue (F), and bottom strand: 3′-TAAAGTGG CCATGC(C)AGATCTTAGGC-5′] were purchased from The Midland Certified Reagent Company (Midland, TX, USA). To analyze the extent of 3’-processing and strand transfer with 5’-end labeled substrates, 21top was 5’-end labeled using T4 polynucleotide kinase (Epicentre, Madison, WI, USA) and [γ-^32P]-ATP (Perkin Elmer, Waltham, MA, USA). The kinase was heat-inactivated at 95 °C and 21bot was added in […]. The reaction mixture was allowed to cool slowly to room temperature, and purified through a spin-25 minicolumn (USA Scientific, Ocala, FL, USA) to separate annealed double-stranded oligonucleotide from unincorporated material. The oligonucleotides used in the APE1 inhibition assay were labeled using a similar protocol.
To determine the extent of 3’-processing and strand transfer, the test compounds, diluted in DMSO, were pre-incubated with purified recombinant IN (at a final concentration of 200 nM) in the reaction buffer [50 mM NaCl, 1 mM HEPES (pH 7.5), 50 μM EDTA, 50 μM dithiothreitol, 10% glycerol (w/v), 7.5 mM MnCl2, 0.1 mg mL–1 bovine serum albumin, 10 mM 2-mercaptoethanol, 10% dimethyl sulfoxide, and 25 mM MOPS (pH 7.2)] at 30 °C for 30 min. For Mg^2+ assay, 7.5 mM MgCl2 was substituted for MnCl2 and an optimal concentration of PEG was included in the reaction buffer. Following the pre-incubation, 20 nM of the 5’-end ^32P-labeled linear oligonucleotide substrate was added to the reaction mixture and incubated for an additional 1 h. Reactions were quenched by addition of 50X loading dye (98% deionized formamide, 10 mM EDTA, 0.025% xylene cyanol, and 0.025 % bromophenol blue). An aliquot was subjected to electrophoresis on a denaturing polyacrylamide gel (0.09 M tris–borate, pH 8.3, 2 mM EDTA, 20% acrylamide, 8M urea). Gels were dried under vacuum, exposed in a PhosphorImager cassette and visualized with a Typhoon 8610 Variable Mode Imager (Amersham Biosciences). Quantification was done with Image Quant 5.2 software. Percent inhibition (%I) was calculated using the following equation: %I = 100 × [1 − (D − C) / (N − C)] where C, N, and D are the fractions of 21-mer substrate converted into 19-mer (product of 3’-processing) or strand-transfer products for DNA alone, DNA plus IN, and DNA, IN plus test compound, respectively. IC50 values were determined by plotting the logarithm of test compound concentrations as a function of %I to obtain the concentration that produced 50% inhibition.

[2] = target: T2, human apurinic/apyrimidinic endonuclease 1 (APE1) (Homo sapiens, UniProt P27695); assay: APE1 inhibition assay; assay type: biochemical
T2 construct: His; made in house
Description: as §1, §2
APE1 inhibition assay was performed as previously described. To determine the extent of endonucleolytic cleavage of the abasic residue, the test compounds, diluted in DMSO, were preincubated with recombinant APE1 at a final concentration of 0.05 nM in the reaction buffer [50 mM NaCl, 1 mM HEPES, pH 7.5, 50 μM EDTA, 50 μM dithiothreitol, 10% glycerol (w/v), 7.5 mM MnCl2, 0.1 mg mL‑1 bovine serum albumin, 10 mM 2-mercaptoethanol, 10% DMSO, and 25 mM MOPS, pH 7.2] at 30 °C for 10 min. Following preincubation, 200 nM of the 5′-end ^32P-labeled linear oligonucleotide substrate was added, and incubated for an additional 10 minutes. Reactions were quenched by the addition of an equal volume (16 μL) of loading dye (98% deionized formamide, 10 mM EDTA, 0.025% xylene cyanol, and 0.025% bromophenol blue). An aliquot (5 μL) was electrophoresed on a denaturing 20% polyacrylamide gel (0.09 M tris-borate pH 8.3, 2 mM EDTA, 20% acrylamide, 8 M urea). The gels were dried, exposed in a PhosphorImager cassette and analyzed using a Typhoon 8610 Variable Mode Imager (Amersham Biosciences). Quantification of enzyme inhibition was done using Image Quant 5.2 software. The percent inhibition (% I) was calculated using the following equation: %I = 100 × [1 − (D − C) / (N − C)] where C, N, and D are the fractions of 26-mer substrate converted to 13-mer incision products (or integration products) for DNA alone, DNA plus APE1, and DNA, APE1 plus test compound, respectively. IC50 values were determined by plotting the logarithm of compound concentration as a function of %I to obtain the concentration that produced 50% inhibition. An optimum concentration of APE1 enzyme, at which there is complete conversion of the synthetic abasic-site containing oligonucleotide substrate to its cleaved product without subsequent exonuclease activity, was used in the assay.

[3] = read-out: Inhibition of IN catalytic activity IC50, 3’-Processing
[4] = read-out: Inhibition of IN catalytic activity IC50, Strand Transfer
[5] = read-out: Inhibition of APE1 catalytic activity IC50

T2 sequence (P27695 whole entry): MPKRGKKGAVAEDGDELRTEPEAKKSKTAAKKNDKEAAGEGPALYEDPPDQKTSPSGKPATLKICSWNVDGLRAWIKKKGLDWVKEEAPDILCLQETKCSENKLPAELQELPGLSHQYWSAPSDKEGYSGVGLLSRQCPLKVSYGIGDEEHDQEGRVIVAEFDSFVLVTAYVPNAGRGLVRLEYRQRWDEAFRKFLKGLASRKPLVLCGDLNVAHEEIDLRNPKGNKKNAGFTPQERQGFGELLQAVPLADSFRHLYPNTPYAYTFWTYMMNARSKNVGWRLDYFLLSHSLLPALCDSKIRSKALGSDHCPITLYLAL

Compound	IC50 [1, 3] [µM]	IC50 [1, 4] [µM]	IC50 [2, 5] [µM]	IN inhibition (in words) [1]	melting point [°C]	IC50 [2] [µM]
2-{[5-(2-Hydroxy-3,5-diisopropylbenzylidene)-4-oxo-2-thioxo-1,3-thiazolidin-3-yl]amino}-N-(3,4,5-trimethoxyphenyl)-2-thioxoacetamide [Compound 40]	> 100	95	> 100			
2-{[5-(2-Hydroxy-3,5-diisopropylbenzylidene)-4-oxo-2-thioxo-1,3-thiazolidin-3-yl]amino}-N-(4-hydroxyphenyl)-2-thioxoacetamide [Compound 54]	> 100	> 100	> 100	loss of activity		
2-{[5-(5-Bromo-2-hydroxy-3-methoxybenzylidene)-4-oxo-2-thioxo-1,3-thiazolidin-3-yl]amino}-N-(3,4,5-trimethoxyphenyl)acetamide [Compound 38]	51 ± 25	32 ± 11	65 ± 33			
O=C(Nc1ccc(F)cc1)C(=S)NN1C(=O)C(=Cc2ccc(Cl)cc2)SC1=S [Compound 6, 2-{[5-(4-Chlorobenzylidene)-4-oxo-2-thioxo-1,3-thiazolidin-3-yl]amino}-N-(4-fluorophenyl)-2-thioxo-acetamide]	> 100	> 100	> 100		204 to 205	
O=C(Nc1ccc(Cl)cc1)C(=S)NN1C(=O)C(=Cc2ccc(Cl)cc2)SC1=S [Compound 7, 2-{[5-(4-Chlorobenzylidene)-4-oxo-2-thioxo-1,3-thiazolidin-3-yl]amino}-N-(4-chlorophenyl)-2-thioxo-acetamide]	> 100	> 100		lacked any IN inhibitory activity	211 to 212	
O=C(Nc1cccc([N+](=O)[O-])c1)C(=S)NN1C(=O)C(=Cc2ccc(Cl)cc2)SC1=S [Compound 8, 2-{[5-(4-Chlorobenzylidene)-4-oxo-2-thioxo-1,3-thiazolidin-3-yl]amino}-N-(3-nitrophenyl)-2-thioxo-acetamide]	> 100	> 100	76 ± 5	lacked any IN inhibitory activity	221 to 222	
COc1ccc(NC(=O)C(=S)NN2C(=O)C(=Cc3ccc(Cl)cc3)SC2=S)cc1 [Compound 9, 2-{[5-(4-Chlorobenzylidene)-4-oxo-2-thioxo-1,3-thiazolidin-3-yl]amino}-N-(4-methoxyphenyl)-2-thioxoacetamide]	33	33	47 ± 2		186 to 187	
O=C(Nc1ccccc1)C(=S)NN1C(=O)C(=Cc2c[nH]c3ccccc23)SC1=S [Compound 10, 2-{[5-(1H-indol-3-ylmethylene)-4-oxo-2-thioxo-1,3-thiazolidin-3-yl]amino}-N-phenyl-2-thioxo-acetamide]	> 100	> 100	> 100	abolished any activity	206 to 207	
Cc1ccc(C(=O)C=C2SC(=S)N(NC(=S)C(=O)Nc3ccccc3)C2=O)cc1 [Compound 11, 2-{5-[2-(4-Methylphenyl)-2-oxoethylidene]-4-oxo-2-thioxo-1,3-thiazolidin-3-yl}amino-N-phenyl-2-thioxoacetamide]	58 ± 4	20 ± 6	> 100		147 to 148	
O=C(Nc1ccc(F)cc1)C(=S)NN1C(=O)C(=Cc2ccc([N+](=O)[O-])o2)SC1=S [Compound 12, N-(4-fluorophenyl)-2-{5-[(5-nitro-2-furyl)methylene]-4-oxo-2-thioxo-1,3-thiazolidin-3-yl}amino-2-thioxoacetamide]	100	93	89 ± 13		155 to 156	
O=C(Nc1cccc([N+](=O)[O-])c1)C(=S)NN1C(=O)C(=Cc2ccc([N+](=O)[O-])o2)SC1=S [Compound 14, 2-{-5-[(5-Nitro-2-furyl)methylene]-4-oxo-2-thioxo-1,3-thiazolidin-3-yl}amino-N-(3-nitrophenyl)-2-thioxoacetamide]	58	58			152 to 153	> 100
O=C(Nc1cccc(C(F)(F)F)c1)C(=S)NN1C(=O)C(=Cc2ccc([N+](=O)[O-])o2)SC1=S [Compound 15, 2-{5-[(5-Nitro-2-furyl)methylene]-4-oxo-2-thioxo-1,3-thiazolidin-3-yl}amino-2-thioxo-N-[3-(trifluoro-methyl)phenyl]acetamide]	61 ± 35	56 ± 11			163 to 164	
O=C(Nc1cc(C(F)(F)F)cc(C(F)(F)F)c1)C(=S)NN1C(=O)C(=Cc2ccc([N+](=O)[O-])o2)SC1=S [Compound 16, N-[3,5-bis(trifluoromethyl)phenyl]-2-{5-[(5-nitro-2-furyl)methylene]-4-oxo-2-thioxo-1,3-thiazolidin-3-yl}amino-2-thioxoacetamide]	> 100	74 ± 20	> 100		195 to 196	
COc1ccc(NC(=O)C(=S)NN2C(=O)C(=Cc3ccc([N+](=O)[O-])o3)SC2=S)cc1OC [Compound 18, N-(3,4-dimethoxyphenyl)-2-{5-[(5-nitro-2-furyl)methylene]-4-oxo-2-thioxo-1,3-thiazolidin-3-yl}amino-2-thioxoacetamide]	34 ± 10	14 ± 5	> 100		156 to 157	
COc1cc(/C=C2/SC(=S)N(NC(=S)C(=O)Nc3cc(C(F)(F)F)cc(C(F)(F)F)c3)C2=O)cc(OC)c1OC [Compound 26, N-[3,5-bis(trifluoromethyl)phenyl]-2-{[4-oxo-2-thioxo-5-(3,4,5-trimethoxybenzylidene)-1,3-thiazol-idin-3-yl]amino}-2-thioxoacetamide]	> 100	> 100			187 to 188	
